Patent publication US20230372253A1, “NOVEL LIPID-BASED SMALL MOLECULE INTEGRIN RECEPTOR-LIGAND AGONIST ADJUVANTS CARRIER COMPOSITIONS, INTEGRIN AGONIST ADJUVANT PHARMACEUTICAL COMPOSITIONS THEREFROM, AND METHODS FOR MAKING AND USING SAME” (7 Hills Pharma LLC, priority 2022, published 2023)
Where two headings read alike, the source gives them in different places. Values belong to the molecule of their own block, whether it stands above or below them.

Experiments:
CYP3A4 = CYP3A4 (Homo sapiens, UniProt P08684); assay: Cytochrome P450 Metabolism; type: in vitro ADME
Sequence of CYP3A4 (P08684 whole entry): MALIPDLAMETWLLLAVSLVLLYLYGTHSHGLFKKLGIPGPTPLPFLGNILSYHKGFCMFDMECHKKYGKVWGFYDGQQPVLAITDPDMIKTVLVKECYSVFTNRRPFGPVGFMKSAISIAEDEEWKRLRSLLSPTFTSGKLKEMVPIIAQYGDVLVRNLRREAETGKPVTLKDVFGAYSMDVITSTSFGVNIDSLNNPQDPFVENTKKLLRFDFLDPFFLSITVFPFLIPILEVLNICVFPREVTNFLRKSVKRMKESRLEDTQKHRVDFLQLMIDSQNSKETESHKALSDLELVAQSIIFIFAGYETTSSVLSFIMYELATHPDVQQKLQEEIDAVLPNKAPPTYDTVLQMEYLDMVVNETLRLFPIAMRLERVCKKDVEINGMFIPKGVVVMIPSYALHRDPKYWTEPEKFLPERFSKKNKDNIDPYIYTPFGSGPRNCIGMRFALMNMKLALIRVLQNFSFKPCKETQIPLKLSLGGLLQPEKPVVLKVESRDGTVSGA

Solubility of 7HP349 = type: physicochemical
CYP2C19 = CYP2C19 (Homo sapiens, UniProt P33261); assay: Cytochrome P450 Metabolism; type: in vitro ADME
Sequence of CYP2C19 (P33261 whole entry): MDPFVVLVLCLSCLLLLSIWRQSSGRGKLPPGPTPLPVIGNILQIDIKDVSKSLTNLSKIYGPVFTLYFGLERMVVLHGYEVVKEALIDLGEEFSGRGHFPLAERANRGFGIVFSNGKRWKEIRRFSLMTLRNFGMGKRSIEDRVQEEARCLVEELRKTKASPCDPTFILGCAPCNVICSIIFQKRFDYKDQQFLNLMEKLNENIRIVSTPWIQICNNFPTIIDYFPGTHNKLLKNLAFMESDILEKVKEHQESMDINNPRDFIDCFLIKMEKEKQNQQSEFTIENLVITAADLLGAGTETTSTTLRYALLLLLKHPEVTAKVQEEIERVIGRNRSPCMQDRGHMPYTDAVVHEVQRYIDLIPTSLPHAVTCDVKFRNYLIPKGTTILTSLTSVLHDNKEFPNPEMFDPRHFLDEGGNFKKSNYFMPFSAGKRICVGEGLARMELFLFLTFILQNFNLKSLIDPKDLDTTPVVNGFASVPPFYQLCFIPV

LogP = type: physicochemical
Excerpt: The term “Log P” means the ratio of the concentrations of a substance in two heterogenous phases in equilibrium with each other. Typically, the organic solvent in n-octanol, but n-hexane; toluene; chlorobenzene; dichloromethane; methyl tert-butyl ether; isopropyl acetate; benzyl alcohol; cyclohexanol; or n-butanol may be used as well.

Human SAD PK = type: in vivo; details: plasma, oral; for AUC(0-t): human; for AUC(0-t) / Cmax / half-life: mean ± SD; for Cmax / half-life / Tmax: n = 6; for Tmax: median
Experimental: Preferred lipid-based formulation based on U28 provided adequate exposure in human. The optimal PK exposure to engage integrins and improve adjuvant activity is systemic plasma exposure of AUC0-t between about 50 ng/mL/hr and about 100 ng/mL/hr.

Cytochrome P450 Metabolism (CYP3A4): Substrate for CYP3A4 and CYP2C19
Solubility (Solubility of 7HP349; aqueous buffers and simulated gastrointestinal fluids, aqueous buffer, hydrochloric acid-potassium chloride buffer (pH 2), citrate buffer (pH 4), sodium phosphate buffer (pH 7.4), SGF, FaSSIF and FeSSIF, read-out: Solubility): < 0.01 µM
Solubility (Solubility of 7HP349; in water): Insoluble in water
Solubility (Solubility of 7HP349; oil or lipid, vegetable oils such as corn, soybean, canola oils typically containing >C16 fatty acids, read-out: Solubility): ≤ 50 mg/mL
Cytochrome P450 Metabolism (CYP2C19): Substrate for CYP3A4 and CYP2C19
logP (LogP): 6.22
AUC(0-t) (Human SAD PK; 50 mg, cohort 1, 50 mg, n = 6, read-out: AUC0-10 h): 12.5 ng·h/mL
AUC(0-t) (Human SAD PK; 50 mg, cohort 1, 50 mg, n = 6, read-out: AUClast): 31.8 ± 21.5 ng·h/mL
AUC(0-t) (Human SAD PK; 100 mg, cohort 2, 100 mg, n = 6, read-out: AUC0-10 h): 115 ± 57.5 ng·h/mL
AUC(0-t) (Human SAD PK; 100 mg, cohort 2, 100 mg, n = 6, read-out: AUClast): 165 ng·h/mL
AUC(0-t) (Human SAD PK; 200 mg, cohort 3, 200 mg, n = 6, read-out: AUC0-10 h): 571 ± 195 ng·h/mL
AUC(0-t) (Human SAD PK; 200 mg, cohort 3, 200 mg, n = 6, read-out: AUClast): 755 ± 241 ng·h/mL
AUC(0-t) (Human SAD PK; 300 mg, cohort 4, 300 mg, n = 6, read-out: AUC0-10 h): 938 ± 282 ng·h/mL
AUC(0-t) (Human SAD PK; 300 mg, cohort 4, 300 mg, n = 6, read-out: AUClast): 1350 ± 316 ng·h/mL
Cmax (Human SAD PK; cohort 1, 50 mg): 10.2 ± 8.17 ng/mL
half-life (Human SAD PK; cohort 1, 50 mg): 8.9 h
Tmax (Human SAD PK; cohort 1, 50 mg): 2.5 h
Cmax (Human SAD PK; cohort 2, 100 mg): 36.1 ± 16.4 ng/mL
half-life (Human SAD PK; cohort 2, 100 mg): 20.6 ± 15 h
Tmax (Human SAD PK; cohort 2, 100 mg): 2 h
Cmax (Human SAD PK; cohort 3, 200 mg): 166 ± 61.8 ng/mL
half-life (Human SAD PK; cohort 3, 200 mg): 34.6 ± 20.7 h
Tmax (Human SAD PK; cohort 3, 200 mg): 2 h
Cmax (Human SAD PK; cohort 4, 300 mg): 321 ng/mL
half-life (Human SAD PK; cohort 4, 300 mg): 29.7 ± 15.4 h
Tmax (Human SAD PK; cohort 4, 300 mg): 2 h
SMILES: O=C(OCCOCCOCCOC(=O)N(Cc1cccs1)Cc1cccs1)N(Cc1cccs1)Cc1cccs1 [Form 7HP349, 3-oxo-1-(2-thienyl)-2-(2-thienylmethyl)-4,7,10-trioxa-2-azadodecan-12-yl bis(2-thienylmethyl)carbamate]
Solubility (Solubility of 7HP349; common organic solvents such as methanol, ethanol, ethyl acetate, acetone, DMSO, DMF, DCM, etc.): Highly soluble in common organic solvents such
Solubility (Solubility of 7HP349; non-polar organic solvents such as hexane, heptane, etc.): Practically insoluble in non-polar organic solvents

logP (LogP): 6.58
SMILES: O=C(OCCOCCOC(=O)N(Cc1cccs1)Cc1cccs1)N(Cc1cccs1)Cc1cccs1 [Form 7HP577, 3-oxo-1-(2-thienyl)-2-(2-thienylmethyl)-4,7-dioxa-2-azanonan-9-yl bis(2-thienylmethyl)carbamate]
